# From US20230365554A1, “SUBSTITUTED PYRROLO-PYRIDINONE DERIVATIVES AND THERAPEUTIC USES THEREOF” (The Broad Institute, Inc., priority 2020, published 2023)
# Biological target: wild-type Epidermal Growth Factor Receptor (EGFR) (Homo sapiens (Human), UniProt P00533)
# Test: WT-EGFR kinase assay (TR-FRET, 2 mM ATP)
# Type: biochemical
# Conditions: median or individual measurements, Table 3, read-out: EGFR Wildtyp-2mM ATP IC50 [mol/l] (median)
# Source text: Inhibitory activity of compounds of the present invention against wild-type Epidermal Growth Factor Receptor (EGFR) was quantified employing the TR-FRET based EGFR assay as described in the following paragraphs.
# Recombinant fusion protein of N-terminal Glutathion-S-Transferase (GST) and a fragment of human EGFR (amino acids R669 to A1210), expressed in Sf9 insect cells and purified via affinity chromatography using Glutathion Sepharose as described above, was used as kinase. As substrate for the kinase reaction the biotinylated peptide biotin-Ahx-AEEEEYFELVAKKK (C-terminus in amide form) was used which can be purchased e.g. form the company Biosynthan GmbH (Berlin-Buch, Germany).
# For the assay 50 nl of a 100 fold concentrated solution of the test compound in DMSO was pipetted into either a black low volume 384 well microtiter plate or a black 1536 well microtiter plate (both Greiner Bio-One, Frickenhausen, Germany), 2 μL of a solution of EGFR in aqueous assay buffer [50 mM Hepes pH 7.0, 10 mM MgCl2, 1 mM dithiothreitol, 0.5 mM EGTA, 0.3 mM activated sodium ortho-vanadate, 0.005% (w/v) bovine serum albumin, 0.005% (v/v) Tween-20] were added and the mixture was incubated for 15 min at 22° C. to allow pre-binding of the test compounds to the enzyme before the start of the kinase reaction. Then the kinase reaction was started by the addition of 3 μL of a solution of adenosine-tri-phosphate (ATP, 3.33 mM=>final conc. in the 5 μL assay volume is 2 mM) and substrate (1.67 μM=>final conc. in the 5 μL assay volume is 1 μM) in assay buffer and the resulting mixture was incubated for a reaction time of 30 min at 22° C. The concentration of EGFR was adjusted depending of the activity of the enzyme lot and was chosen appropriate to have the assay in the linear range, typical concentration was 7.6 pg/μL. The reaction was stopped by the addition of 3 μL of a solution of HTRF detection reagents (83.3 nM streptavidine-XL665 [Cisbio Bioassays, Codolet, France] and 1.67 nM PT66-Tb-Cryptate, a terbium-cryptate labelled anti-phospho-tyrosine antibody from Cisbio Bioassays [instead of the PT66-Tb-cryptate PT66-Eu-Chelate from Perkin Elmer can also be used]) in an aqueous EDTA-solution (133.3 mM EDTA, 0.2% (w/v) bovine serum albumin in 50 mM HEPES pH 7.5).
# The resulting mixture was incubated 1 h at 22° C. to allow the binding of the biotinylated phosphorylated peptide to the streptavidine-XL665 and the PT66-Tb-Cryptate. Subsequently the amount of phosphorylated substrate was evaluated by measurement of the resonance energy transfer from the PT66-Tb-Cryptate to the streptavidine-XL665. Therefore, the fluorescence emissions at 620 nm and 665 nm after excitation at 337 nm were measured in a HTRF reader, e.g. a Pherastar (BMG Labtechnologies, Offenburg, Germany) or a Viewlux (Perkin-Elmer). The ratio of the emissions at 665 nm and at […] was taken as the measure for the amount of phosphorylated substrate. The data were normalised (enzyme reaction without inhibitor=0% inhibition, all other assay components but no enzyme=100% inhibition).
# Sequence of wild-type Epidermal Growth Factor Receptor (EGFR) (P00533 669-1210): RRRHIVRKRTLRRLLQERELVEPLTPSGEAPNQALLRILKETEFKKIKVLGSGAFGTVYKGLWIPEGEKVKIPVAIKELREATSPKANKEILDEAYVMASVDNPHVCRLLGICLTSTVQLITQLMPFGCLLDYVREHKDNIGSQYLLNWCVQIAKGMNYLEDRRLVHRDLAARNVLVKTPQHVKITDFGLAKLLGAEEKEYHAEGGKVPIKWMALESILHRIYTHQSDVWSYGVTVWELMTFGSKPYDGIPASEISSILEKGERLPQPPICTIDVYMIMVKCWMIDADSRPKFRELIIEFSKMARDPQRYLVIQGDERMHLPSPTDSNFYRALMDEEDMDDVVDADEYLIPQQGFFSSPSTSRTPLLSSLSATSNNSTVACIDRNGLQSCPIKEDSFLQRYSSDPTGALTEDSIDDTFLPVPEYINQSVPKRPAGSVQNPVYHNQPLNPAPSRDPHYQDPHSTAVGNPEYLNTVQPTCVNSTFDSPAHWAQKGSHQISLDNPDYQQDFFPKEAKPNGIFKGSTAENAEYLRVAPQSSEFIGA
row,Structure (SMILES),IC50 [nM]
1,"Cn1cc(CC2CC2)c2[nH]c(-c3ccnc(NC(=O)Cc4ccc(F)cc4)c3)c(Nc3ccccc3)c2c1=O [Example 32, N-{4-[3-anilino-7-(cyclopropylmethyl)-5-methyl-4-oxo-4,5-dihydro-1H-pyrrolo[3,2-c]pyridin-2-yl]pyridin-2-yl}-2-(4-fluorophenyl)acetamide]",860
2,"CN1CC(CC(F)(F)F)c2[nH]c(-c3ccnc(NC(=O)C(CC(F)F)c4ccc(F)cc4)c3)c(Nc3cscn3)c2C1=O (single isomer, unassigned) [Example 54, (2R or S)-4,4-difluoro-2-(4-fluorophenyl)-N-{4-[(7R or S)-5-methyl-4-oxo-3-[(1,3-thiazol-4-yl)amino]-7-(2,2,2-trifluoroethyl)-4,5,6,7-tetrahydro-1H-pyrrolo[3,2-c]pyridin-2-yl]pyridin-2-yl}butanamide]",> 20000
3,"CN1CC(CC(F)(F)F)c2[nH]c(-c3ccnc(NC(=O)Cc4ccc(F)cc4)c3)c(Nc3ccccc3)c2C1=O (single isomer, unassigned) [Example 15, N-{4-[3-anilino-5-methyl-4-oxo-7-(2,2,2-trifluoroethyl)-4,5,6,7-tetrahydro-1H-pyrrolo[3,2-c]pyridin-2-yl]pyridin-2-yl}-2-(4-fluorophenyl)acetamide]",2900
4,"CN1CC(CC2CC2)c2[nH]c(-c3ccnc(NC(=O)Cc4ccc(F)cc4)c3)c(Nc3ccccc3)c2C1=O (single isomer, unassigned) [Example 19, N-{4-[3-anilino-7-(cyclopropylmethyl)-5-methyl-4-oxo-4,5,6,7-tetrahydro-1H-pyrrolo[3,2-c]pyridin-2-yl]pyridin-2-yl}-2-(4-fluorophenyl)acetamide]",1800
5,"O=C1N[C@@H]2CCC[C@@H]2c2[nH]c(-c3ccnc(NC(=O)C(CC(F)F)c4ccc(F)cc4)c3)c(Nc3ccccc3)c21 (single isomer, unassigned; (-)) [Example 24, (−)-(2R or S)—N-{4-[cis-3-anilino-4-oxo-1,4,5,5a,6,7,8,8a-octahydrocyclopenta[b]pyrrolo[2,3-d]pyridin-2-yl]pyridin-2-yl}-4,4-difluoro-2-(4-fluorophenyl)butanamide]",310
6,"CC1CN(C)C(=O)c2c1[nH]c(-c1ccnc(NC(=O)Cc3ccc(F)cc3)c1)c2Nc1ccccc1 (racemic) [Example 6, N-{4-[3-anilino-5,7-dimethyl-4-oxo-4,5,6,7-tetrahydro-1H-pyrrolo[3,2-c]pyridin-2-yl]pyridin-2-yl}-2-(4-fluorophenyl)acetamide]",1400
7,"Cc1cc2[nH]c(-c3ccnc(NC(=O)C(CC(F)F)c4ccc(F)cc4)c3)c(Nc3ccccc3F)c2c(=O)n1C (racemic) [Example 31, 4,4-difluoro-N-{4-[3-(2-fluoroanilino)-5,6-dimethyl-4-oxo-4,5-dihydro-1H-pyrrolo[3,2-c]pyridin-2-yl]pyridin-2-yl}-2-(4-fluorophenyl)butanamide]",> 20000
8,"O=C1N[C@@H]2CCC[C@@H]2c2[nH]c(-c3ccnc(NC(=O)C(CC(F)F)c4ccc(F)cc4)c3)c(Nc3ccccc3)c21 (single isomer, unassigned; (+)) [Example 22, (+)-(2R or S)—N-{4-[cis-3-anilino-4-oxo-1,4,5,5a,6,7,8,8a-octahydrocyclopenta[b]pyrrolo[2,3-d]pyridin-2-yl]pyridin-2-yl}-4,4-difluoro-2-(4-fluorophenyl)butanamide]",> 20000
9,"Cn1cc(CC(F)(F)F)c2[nH]c(-c3ccnc(NC(=O)C(CC(F)F)c4ccc(F)cc4)c3)c(Nc3ccccc3)c2c1=O (single isomer, unassigned) [Example 37, N-{4-[3-anilino-5-methyl-4-oxo-7-(2,2,2-trifluoroethyl)-4,5-dihydro-1H-pyrrolo[3,2-c]pyridin-2-yl]pyridin-2-yl}-4,4-difluoro-2-(4-fluorophenyl)butanamide]",120
